Measurements as given in PubChem BioAssay AID248 (DTP/NCI, 2004).
Values joined by “and” are separate entries in the source; they are usually repeats but may differ in a detail not shown here. Identical values can stand only once. Inconclusive results and toxic doses are left out. Rule as the data show it: active = T/C of 150% or more; inactive = T/C below 125%.

Test system: L1210 leukemia ip in BDF1 mice, survival T/C
Test: NCI In Vivo Anticancer Drug Screen. Data for tumor model L1210 Leukemia (intraperitoneal) in B6D2F1 (BDF1) mice
Conditions: endpoint: mean survival time, higher = longer survival
How it was run: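 Mice bearing the transplanted tumor received compound or vehicle. Survival of the treated group was divided by that of the vehicle-treated control group to give the ratio.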

[1] = dose: 50.0 mg/kg/injection, schedule: Q01DX009 (ip), vehicle: saline with Tween-80
[2] = dose: 100.0 mg/kg/injection, schedule: Q01DX009 (ip), vehicle: saline with Tween-80
[3] = dose: 100.0 mg/kg/injection, schedule: Q01DX001 (ip), vehicle: saline
[4] = dose: 200.0 mg/kg/injection, schedule: Q01DX001 (ip), vehicle: saline
[5] = dose: 400.0 mg/kg/injection, schedule: Q01DX001 (ip), vehicle: saline
[6] = dose: 50.0 mg/kg/injection, schedule: Q01DX001 (ip), vehicle: saline
[7] = dose: 100.0 mg/kg/injection, schedule: Q01DX009 (ip), vehicle: saline
[8] = dose: 100.0 mg/kg/injection, schedule: Q01DX009 (ip), vehicle: Klucel (hydroxypropylcellulose) (HPC)
[9] = dose: 100.0 mg/kg/injection, schedule: Q04DX003 (ip), vehicle: Klucel (hydroxypropylcellulose) (HPC)
[10] = dose: 200.0 mg/kg/injection, schedule: Q01DX009 (ip), vehicle: Klucel (hydroxypropylcellulose) (HPC)
[11] = dose: 200.0 mg/kg/injection, schedule: Q04DX003 (ip), vehicle: Klucel (hydroxypropylcellulose) (HPC)
[12] = dose: 400.0 mg/kg/injection, schedule: Q01DX009 (ip), vehicle: Klucel (hydroxypropylcellulose) (HPC)
[13] = dose: 400.0 mg/kg/injection, schedule: Q04DX003 (ip), vehicle: Klucel (hydroxypropylcellulose) (HPC)
[14] = dose: 100.0 mg/kg/injection, schedule: Q04DX003 (ip), vehicle: saline with Tween-80
[15] = dose: 200.0 mg/kg/injection, schedule: Q04DX003 (ip), vehicle: saline with Tween-80
[16] = dose: 200.0 mg/kg/injection, schedule: Q01DX009 (ip), vehicle: saline with Tween-80
[17] = dose: 100.0 mg/kg/injection, schedule: Q01DX009 (ip), vehicle: gum acacia
[18] = dose: 200.0 mg/kg/injection, schedule: Q01DX009 (ip), vehicle: gum acacia
[19] = dose: 100.0 mg/kg/injection, schedule: Q04DX002 (ip), vehicle: saline with Tween-80

Measured: T/C

NC(=O)c1cc(NC(=O)c2ccc(C(=O)Nc3cc(C(N)=O)cc(C4=NCCN4)c3)cc2)cc(C2=NCCN2)c1
inactive: dose: 4.0 mg/kg/injection, schedule: Q01DX015 (ip), vehicle: methylcellulose (MC) 103 % of control | dose: 8.0 mg/kg/injection, schedule: Q01DX015 (ip), vehicle: methylcellulose (MC) 92 % of control | dose: 16.0 mg/kg/injection, schedule: Q01DX015 (ip), vehicle: methylcellulose (MC) 105 % of control | dose: 62.5 mg/kg/injection, schedule: Q01DX015 (ip), vehicle: methylcellulose (MC) 116 % of control | dose: 125.0 mg/kg/injection, schedule: Q01DX015 (ip), vehicle: methylcellulose (MC) 117 % of control

O=[N+]([O-])c1ccc(Cl)cc1/C=N\N=C1c2ccccc2-c2ccccc21
inactive: dose: 150.0 mg/kg/injection, schedule: Q01DX001 (ip), vehicle: other 94 % of control | dose: 300.0 mg/kg/injection, schedule: Q01DX001 (ip), vehicle: other 100 % of control

COc1ccc(OC)c(/C=N/NC(=O)C[N+](C)(C)C)c1
inactive: [1] 88 % of control | [2] 86 % of control

S=C(Sc1ccc(Cl)cc1)Sc1ccc(Cl)cc1
inactive: [3] 93 % of control | [4] 93 % of control | [5] 90 % of control

Nc1nc(N)c2nc3c(nc2n1)C(=O)N(c1ccc(C(=O)O)cc1)C3
inactive: dose: 12.5 mg/kg/injection, schedule: Q01DX001 (ip), vehicle: saline 102 % of control | dose: 25.0 mg/kg/injection, schedule: Q01DX001 (ip), vehicle: saline 91 % of control | [6] 102 % of control | [7] 90 % of control

S=C1NC2(CCCCC2)NC12CCCCC2
inactive: [8] 97 % of control | [9] 101 % of control | [10] 98 % of control | [11] 103 % of control | [12] 93 % of control | [13] 101 % of control

Cn1c(=O)c2c(ncn2C)n(C)c1=O (tested in a mixture with another compound)
inactive: [14] 98 % of control | [15] 101 % of control | dose: 400.0 mg/kg/injection, schedule: Q04DX003 (ip), vehicle: saline with Tween-80 114 % of control

O=C(O)c1cccc2ccccc12
inactive: [2] 89 % of control | [16] 100 % of control

CCOc1ccc(C(/C(Cl)=N/O)C(Cl)(Cl)Cl)cc1 (stereo unspecified)
inactive: dose: 12.5 mg/kg/injection, schedule: Q04DX003 (ip), vehicle: acetone 93 % of control | dose: 25.0 mg/kg/injection, schedule: Q04DX003 (ip), vehicle: acetone 97 % of control | dose: 50.0 mg/kg/injection, schedule: Q04DX003 (ip), vehicle: acetone 92 % of control

BrC(Br)c1ccccc1C(Br)Br
inactive: [17] 98 % of control | dose: 100.0 mg/kg/injection, schedule: Q04DX003 (ip), vehicle: gum acacia 99 % of control | [18] 98 % of control | dose: 200.0 mg/kg/injection, schedule: Q04DX003 (ip), vehicle: gum acacia 108 % of control | dose: 400.0 mg/kg/injection, schedule: Q04DX003 (ip), vehicle: gum acacia 97 % of control

O=C(O)CCCC1CCCCC1.[Cu+2]
inactive: dose: 2.5 mg/kg/injection, schedule: Q01DX009 (ip), vehicle: Klucel (hydroxypropylcellulose) (HPC) 101 % of control | dose: 2.5 mg/kg/injection, schedule: Q04DX003 (ip), vehicle: Klucel (hydroxypropylcellulose) (HPC) 97 % of control | dose: 5.0 mg/kg/injection, schedule: Q01DX009 (ip), vehicle: Klucel (hydroxypropylcellulose) (HPC) 101 % of control | dose: 5.0 mg/kg/injection, schedule: Q04DX003 (ip), vehicle: Klucel (hydroxypropylcellulose) (HPC) 101 % of control | dose: 10.0 mg/kg/injection, schedule: Q01DX009 (ip), vehicle: Klucel (hydroxypropylcellulose) (HPC) 92 % of control | dose: 10.0 mg/kg/injection, schedule: Q04DX003 (ip), vehicle: Klucel (hydroxypropylcellulose) (HPC) 97 % of control

CCOC(=O)C1=NN(c2ccccc2)C(=O)C1N=Nc1ccc(S(=O)(=O)Nc2cc(C)nc(C)n2)cc1 (stereo unspecified)
inactive: [3] 101 % of control | [4] 102 % of control | [5] 96 % of control

CCCC[Si]CCCC
inactive: dose: 25.0 mg/kg/injection, schedule: Q01DX001 (ip), vehicle: saline with Tween-80 103 % of control | dose: 25.0 mg/kg/injection, schedule: Q01DX009 (ip), vehicle: saline with Tween-80 103 % of control | dose: 50.0 mg/kg/injection, schedule: Q01DX001 (ip), vehicle: saline with Tween-80 110 % of control | [1] 101 % of control | dose: 100.0 mg/kg/injection, schedule: Q01DX001 (ip), vehicle: saline with Tween-80 102 % of control | [2] 101 % of control

CN(CCO)C(=O)/C=C/c1ccc(O)cc1
inactive: dose: 50.0 mg/kg/injection, schedule: Q01DX009 (ip), vehicle: saline 95 % of control | [7] 95 % of control | dose: 200.0 mg/kg/injection, schedule: Q01DX009 (ip), vehicle: saline 101 % of control

CCOC(=O)C(C(=O)OCC)C1c2ccccc2NC(=O)c2ccccc21 (stereo unspecified)
inactive: [8] 100 % of control | [9] 90 % of control | [10] 100 % of control | [11] 90 % of control | [12] 91 % of control | [13] 88 % of control

Nc1ccc(Cl)nc1
inactive: [6] 98 % of control | [3] 98 % of control | [4] 102 % of control | [5] 96 % of control

CCOc1n[n+]([O-])c(Cl)c(C)c1[N+](=O)[O-]
inactive: dose: 25.0 mg/kg/injection, schedule: Q04DX002 (ip), vehicle: saline with Tween-80 96 % of control | dose: 50.0 mg/kg/injection, schedule: Q04DX002 (ip), vehicle: saline with Tween-80 92 % of control | [19] 96 % of control

NOCc1csc(N)n1
inactive: [3] 101 % of control | [4] 95 % of control | [5] 104 % of control

CC1SCC(NC(=O)NCCCl)CS1 (stereo unspecified)
inactive: dose: 100.0 mg/kg/injection, schedule: Q04DX002 (ip), vehicle: gum acacia 103 % of control | dose: 200.0 mg/kg/injection, schedule: Q04DX002 (ip), vehicle: gum acacia 100 % of control | dose: 400.0 mg/kg/injection, schedule: Q04DX002 (ip), vehicle: gum acacia 100 % of control

O=C(O)c1c[nH]n2c(=S)ncnc12
inactive: [1] 97 % of control | [2] 96 % of control and 103 % of control | [14] 96 % of control | [16] 102 % of control and 103 % of control | [15] 94 % of control | dose: 400.0 mg/kg/injection, schedule: Q01DX009 (ip), vehicle: saline with Tween-80 101 % of control

O=C(Nc1cccc(C(F)(F)F)c1)Nc1ccccc1C(F)(F)F
inactive: [17] 101 % of control | [18] 101 % of control | dose: 400.0 mg/kg/injection, schedule: Q01DX009 (ip), vehicle: gum acacia 104 % of control

C[n+]1cc(I)cc2ccccc21
inactive: dose: 50.0 mg/kg/injection, schedule: Q01DX001 (ip), vehicle: carboxymethylcellulose (CMC) 97 % of control | dose: 100.0 mg/kg/injection, schedule: Q01DX001 (ip), vehicle: carboxymethylcellulose (CMC) 103 % of control | dose: 200.0 mg/kg/injection, schedule: Q01DX001 (ip), vehicle: carboxymethylcellulose (CMC) 103 % of control | dose: 400.0 mg/kg/injection, schedule: Q01DX001 (ip), vehicle: carboxymethylcellulose (CMC) 101 % of control

C[CH2][Ge]1([CH2]C)[CH2]C(C)=C(C)[CH2]1
inactive: [19] 95 % of control | dose: 200.0 mg/kg/injection, schedule: Q04DX002 (ip), vehicle: saline with Tween-80 95 % of control

O=C(O)/C=C/C(=O)Nc1ccccc1
inactive: [8] 90 % of control | [9] 93 % of control | [10] 97 % of control | [11] 95 % of control | [12] 100 % of control | [13] 95 % of control

OCC(O)C(O)C(OC1OC(CO)C(O)C(O)C1O)C(O)CO (stereo unspecified)
inactive: dose: 100.0 mg/kg/injection, schedule: Q01DX001 (ip), vehicle: Klucel (hydroxypropylcellulose) (HPC) 99 % of control | dose: 200.0 mg/kg/injection, schedule: Q01DX001 (ip), vehicle: Klucel (hydroxypropylcellulose) (HPC) 89 % of control | dose: 400.0 mg/kg/injection, schedule: Q01DX001 (ip), vehicle: Klucel (hydroxypropylcellulose) (HPC) 99 % of control
